From patent US9683014B2, “Dipeptide mimetics of NGF and BDNF neurotrophins” (UCHREZHDENIE ROSSIISKOI AKADEMII MEDITSYNSKIKH NAUK …, priority 2009, dated 2017)
Marks after values point to notes of the source that are not given here.

Assays:
Hsp70 = test: Western blot of Hsp70 in HT-22 cells; assay type: cell-based, mouse; details: 24 h after addition; GK-1, GK-2 10^−8 and 10^−5 M; GK-3 10^−6 M; GK-4 10^−7 M; GK-5 10^−6 M
Description: The amount of Hsp70, Hsp32 and pTrkA was determined in the cytoplasmic fraction of HT-22 neuronal cells. For heat shock proteins, a test compound was added to the culture 24 hours prior to testing, before the cells were washed off the culture liquid with PBS. For pTrkA, a test compound was added to the culture immediately prior to the cell lysis just for 1 or 2 min, before the cells were washed off the culture liquid with PBS. Then the cells were mixed with the lysis buffer (50 mM Tris-HCl, 5 mM EDTA, 1 mM DTT, 1% Triton X-100, pH 7.5) at 4° C. and lysed for 5 min, then scraped off, transferred into a 1.5 ml centrifuge tube and centrifuged at 13000 rpm and 4° C. for 10 min. The supernatant containing cytosolic proteins was assayed by electrophoresis and immunoblotting. Proteins were separated on a 10% polyacrylamide gel (PAAG) and transferred from PAAG onto a PVDF membrane by electroelution for 45 min. Western blots were pre-incubated for 1 h in a TBST solution containing 1% Tween-20 and supplemented with 5% (w/v) skim milk. Western blots were then incubated with the primary polyclonal anti-Hsp32 antibody diluted 1:1000 or primary monoclonal anti-Hsp70 antibody diluted 1:1000 or primary monoclonal anti-phosphorylated tyrosine kinase A antibody diluted 1:1000 for 1 hour. Then the blots were washed and incubated with a secondary antibody conjugated to horseradish peroxidase (diluted 1:2000) for 1 hour. The detection of Hsp70, Hsp32 and pTrkA was carried out by the ECL reaction on a Kodak film.

[1] = tested on: rats with photothrombosis of the prefrontal cortex
Description: Male outbred rats weighing 180-200 g were used.
Experimental stages: surgery for photothrombosis, evaluation of motor activity (before and at 9 days after photothrombosis); PAR conditioning and the retention test at 9 days after photothrombosis; animal sacrifice, excision and fixation of the brain; morphologic examination and ischemic zone volume calculation.
The test substance was administered intraperitoneally at a dose of 1 mg/kg using the following regimen: at 1 h after surgery, at 24 h after the first administration, at 4 days and 6 days after the first administration.
PAR conditioning was performed according to the following protocol: The latency time (LT) was defined as the time between the start of testing and the moment of crossing the hole dividing the light and dark compartments. On day 1 the rat was placed in the light compartment (a 100 W light bulb) and, having explored it for a certain time (LT to learning), crossed into the dark compartment. Thereafter the door leading to this compartment was closed, and the rat was allowed to stay there for 5 min. One hour later the procedure was repeated by taking the rat out of the dark compartment. On the next day this procedure was repeated twice with a 1 h interval. During the second visit by the rat to the dark compartment the door was closed and electric current was passed through the metal bars in the floor (1.3 mA, 50 Hz, 5 sec). The PAR conditioning was considered established when the LT was at least 300 sec. Animals with lower LT values were excluded from the experiments.
A bilateral focal ischemic infarction of the prefrontal cortex of the rat brain (the Fr1 and Fr2 fields according to the atlas of Paxinos and Watson, 1986) was produced by the photoinduced thrombosis method (Watson et al., 1985). Animals were anesthetized with chloral hydrate (300 mg/kg i.p.). The photosensitive dye Bengal red (Sigma Chemical Co.) was injected into the jugular vein (3% solution, 40 mg/kg). The animal's head was clamped in the stereotaxis device, and the periosteum was removed after a longitudinal incision of the skin.
A light guide (the output light beam diameter 3 mm) was placed at a distance of 1 mm from the skull surface using the following coordinates: 2.00 mm rostral of the bregma and 2.00 mm lateral of the sagittal suture. Cold light illumination (a xenon lamp source, 25 V, 250 W) was carried out for 15 min at either side. Sham-operated animals were subjected to the same procedure except for the Bengal red injection. To assess their functional status, the animals were evaluated for their motor activity (MA) in a RODEO-1 automatic unit with an observation time of 5 min. The MA was analyzed before and at 9 days after the photothrombosis of the prefrontal cortex.

C57B1/6 mice = details: 1.0 mg/kg i.p. 24 h prior to MPTP 30 mg/kg i.p.; 60 min after MPTP; active control 8
Description: The test compound was administered intraperitoneally to male C57B1/6 mice weighing 22-25 g at a preselected dose of 1.0 mg/kg at 24 hours prior to the MPTP injection (30 mg/kg i.p.). The animals were placed in the open-field device 60 min after the MPTP injection. Animal's horizontal and vertical motor activities were monitored for 2 minutes. Passive control group was represented by animals treated with distilled water instead of MPTP. […] The treatment group was treated with GK-2 followed by MPTP. Statistical data treatment was carried out using the Mann-Whitney U-test.

[2] = tested on: rats with ischemic cerebral infarction

## NCCCC[C@H](NC(=O)[C@H](CCC(=O)O)NC(=O)CCC(=O)O)C(=O)NCCCCCCNC(=O)[C@H](CCCCN)NC(=O)[C@H](CCC(=O)O)NC(=O)CCC(=O)O [GK-2, bis-(N-monosuccinyl-glutamyl-lysine) hexamethylenediamide]
Hsp70
  amount of Hsp70: increase
[1]; 1 mg/kg i.p.
  retention of the PAR: 100%
[1]; 1 mg/kg i.p. at 1 h, 24 h, 4 and 6 days, at 8 days after photothrombosis, saline 20-105, sham 300
  latency time of PAR, individual rats: 300 s
[1]; 1 mg/kg i.p., n = 9, saline 59.2, sham 300
  latency time of PAR, group mean: 300 s
[1]; 1 mg/kg i.p., photothrombosis alone 59.2 sec
  latency time of PAR: at least 300 sec
C57B1/6 mice
  Number of sectors crossed (% of passive control): 38*^+ % of passive control
[2]; 1 mg/kg i.p. at 1, 24, 48 h post-ischemia, NMRT day 7, control group 46%
  animals with swelling of the affected hemisphere: 9%
[2]; 1 mg/kg i.p. at 1, 24, 48 h post-ischemia, control also 3
  mortality rate: 3 animals
[2]; 1 mg/kg i.p. x3, NMRT day 7, n=12, saline control 266±20
  ischemic lesion volume: 222±16 mm^3
[2]; 1 mg/kg i.p. x3, versus saline control
  reduction of lesion volume: 16.5%
